Measurements published in EP0814162A2 (priority 1996, dated 1997).

Tests used:
[1] = mouse model; cited from earlier work
α-toxin = settings: in vitro; cited from earlier work
hla-lacZ fusion = experiment: β-galactosidase chemiluminescent reporter assay of the chromosomal hla-lacZ fusion (hla expression); assay type: cell-based, S. aureus Wood 46-3; settings: for influence on hla expression (in words): subinhibitory concentrations of antibiotics
hla mRNA = experiment: Northern blot analysis with intragenic hla probe; settings: 0.5 µg/ml methicillin versus without antibiotic

SMILES | influence on hla expression (in words) (hla-lacZ fusion) | further results
CCOc1ccc2ccccc2c1C(=O)N[C@@H]1C(=O)N2[C@@H]1SC(C)(C)[C@@H]2C(=O)O [nafcillin] | – | lethal activity of broth filtrates [1]: increases; α-toxin production (α-toxin): induces
Cc1onc(-c2ccccc2)c1C(=O)N[C@@H]1C(=O)N2[C@@H]1SC(C)(C)[C@@H]2C(=O)O [Oxacillin] | dramatically increased | –
CC[C@H]1OC(=O)[C@H](C)[C@@H](O[C@H]2C[C@@](C)(OC)[C@@H](O)[C@H](C)O2)[C@H](C)[C@@H](O[C@@H]2O[C@H](C)C[C@H](N(C)C)[C@H]2O)[C@](C)(O)C[C@@H](C)C(=O)[C@H](C)[C@@H](O)[C@]1(C)O [Erythromycin] | repressed | –
COc1cccc(OC)c1C(=O)N[C@@H]1C(=O)N2[C@@H]1SC(C)(C)[C@@H]2C(=O)O [Methicillin] | dramatically increased | increase of the β-galactosidase activity compared to medium without antibiotic (hla-lacZ fusion; quarter of the MIC, postexponential phase): sixfold increase; amount of hla mRNA detected by Northern hybridization (hla mRNA): greater amount of hla mRNA
COc1cc(Cc2cnc(N)nc2N)cc(OC)c1OC [Trimethoprim] | weak stimulatary effect | –
C[C@@H]1O[C@@H]1P(=O)(O)O [Fosfomycin] | weak stimulatary effect | –
CN[C@H](CC(C)C)C(=O)N[C@H]1C(=O)N[C@@H](CC(N)=O)C(=O)N[C@H]2C(=O)N[C@H]3C(=O)N[C@H](C(=O)N[C@H](C(=O)O)c4cc(O)cc(O)c4-c4cc3ccc4O)[C@H](O)c3ccc(c(Cl)c3)Oc3cc2cc(c3O[C@@H]2O[C@H](CO)[C@@H](O)[C@H](O)[C@H]2O[C@H]2C[C@](C)(N)[C@H](O)[C@H](C)O2)Oc2ccc(cc2Cl)[C@H]1O [Vancomycin] | weak stimulatary effect | –
[Cl-].[Na+] [NaCl, sodium chloride] | – | β-galactosidase production (hla-lacZ fusion; 0.8 M NaCl in LB broth, postexponential): 7800 RLU; effect on hla expression (in words) (hla-lacZ fusion; NaCl above 1.6 M): inhibitory
